Measurements as given in patent US20150031128A1, “CULTURE MEDIUM FOR EUKARYOTIC CELLS” (Friesland Brands B.V., priority 2012, published 2015).
Peptide text beside a SMILES is read from it.

Legend:
[1] = test system: IgG expressing CHO cell line (CHO-2: ATCC CRL 11397, producing IgG4); assay: Specific IgG production of IgG expressing CHO cells in supplemented chemically defined medium (sandwich ELISA / AUC); format: cell-based, Chinese hamster; settings: ratio of cumulative IgG production (mg/ml) and AUC at day 11
Description: (§1) The cell culture assay was carried out in commercially available IS CHO-CD medium (Irvine Scientific, Cat. No. 91119). To this media, L-Glutamine (2 mM), pluronic acid, hypoxanthine (100 μM) and thymidine (15 μM) were added. Penicillin and streptomycin were added to prevent any bacterial growth during the growth assay. The media was supplemented with sodium-L-lactate, methyl-L-3-phenyl lactate, mucic acid, D-chiro-inositol, ferulic acid, syringic acid, adenine (A2786) and trigonelline, all purchased from Sigma Aldrich, Germany, in varying concentrations (see Table 2). The supplemented medium was mixed with a vortex mixture, filtered using a 0.22 μm filter and subsequently used in a growth assay.
(§2) An IgG expressing CHO cell line was used (CHO-2: ATCC CRL 11397, producing IgG4). The cell lines were grown in the adherent conditions for a few passages and once confluent, they were transferred to animal-free conditions in the supplemented media described in Example 2.
(§3) To measure growth and production curves, Chinese hamster ovary (CHO) cells were grown in suspension culture in baffled flasks. 20×10^6 cells were transferred in 25 ml media to the baffled flasks. Chemically defined media with and without added cell culture medium components were tested. No fresh media was added during the growth assay. Cells were counted using the CEDEX HiRes cell counter (Innovatis, Germany). The cell counts were used to calculate the area under the growth curve and represented as dimensionless area under curve (AUC) values as described in detail in Ling, C. X, Huang, J. and Zhang, H. (2003), International joint conferences on artificial intelligence, pp. 329-341. The supernatant samples were taken every alternate days for the IgG production measurements. IgG production was measured using sandwich ELISA method. The specific IgG production was calculated by taking the ratio of cumulative IgG production (in mg/ml) and AUC measured at day 11 of the growth assay. The cells were visually inspected using a phase contrast microscope (Zeiss Axiovert 25, 400× magnification). […] Only single cells were observed and no aggregation of cells was seen. The cell shape was also positively affected. […] This was in contrast with the observation that a lot of cell aggregates were present in CHO cell cultures grown in chemically defined medium without cell culture medium components.
(§4) Table 2A and 2B. Specific IgG production and cell growth of CHO cells in chemically defined cell culture medium (see Example 5 for details) with added cell culture medium components of the invention in varying concentrations. Production and growth data in chemically defined cell culture medium without added alpha-hydroxy acid derivatives, as well as in chemically defined cell culture medium supplemented with soy protein hydrolysate (0.4% w/v) and with fetal calf serum (Gibco-Invitrogen; 5% v/v) are provided for comparison.

[2] = test system: antibody production in cell culture; assay: Correlation (linear regression, SLOPE) of antibody production with relative concentration of components in plant protein hydrolysates; format: cell-based; settings: linear regression over plant protein hydrolysates; higher positive slope = higher importance
Description: Commercial plant protein hydrolysates like SE50MAF-UF, WGE80M-UF, CNE80M-UF, PCE80B obtained from FrieslandCampina Domo, USA were analysed by Liquid chromatography/Mass Spectrometry (LC/MS, LC/MS2) using a Waters Acquity UPLC and a Thermo-Finnigan LTQ mass spectrometer, which consists of an electrospray ionization (ESI) source and linear ion-trap (LIT) mass analyzer. The sample extract was split into two aliquots, dried, then reconstituted in acidic or basic LC-compatible solvents. One aliquot was analyzed using acidic positive ion optimized conditions and the other using basic negative ion optimized conditions in two independent injections using separate dedicated columns. […] Using the SLOPE function of Microsoft Excel 2003, the correlation between antibody production and relative concentration of the components was calculated, the results of which are presented in Table 1 below. The higher the positive slope, the higher the importance of a biochemical component in the cell culture. p-values, also calculated using MS Excel's correlation regression function, represent the significance of the values, with the lower the p-value (all between 0 and 1), the more significant the measured value.

[3] = test system: IgG expressing CHO cell line (CHO-2: ATCC CRL 11397, producing IgG4); assay: Cell growth (area under growth curve) of CHO cells in supplemented chemically defined medium; format: cell-based, Chinese hamster; settings: dimensionless AUC
Description: as §1, §2, §3, §4

[4] = component added at 1 × 10^−1 % w/v
[5] = component added at 1 × 10^−2 % w/v
[6] = component added at 1 × 10^−3 % w/v

C[n+]1cccc(C(=O)[O-])c1 [trigonelline, 1-methylpyridinium-3-carboxylate]
Specific IgG production after 11 days [1, 4]: 83.65
Specific IgG production after 11 days [1, 5]: 75.68

CC(C)[C@H](N)C(=O)N[C@@H](CCC(=O)O)C(=O)O [valinylglutamate] (H-Val-Glu-OH)
SLOPE (correlation of antibody production and relative concentration of cell culture medium component) [2]: 2064.16

OC1C(O)C(O)C(O)C(O)C1O [D-Chiro-inositol, D-chiro-inositol]
Specific IgG production after 11 days [1, 4]: 60.22
Specific IgG production after 11 days [1, 5]: 93.05
Specific IgG production after 11 days [1, 6]: 102.40
Cell growth (area under curve) after 14 days [3, 4]: 64.24
Cell growth (area under curve) after 14 days [3, 5]: 51.22
Cell growth (area under curve) after 14 days [3, 6]: 50.18

O=C(O)CC[C@@H]1NC(=O)CNC1=O [cyclo(Gly-Glu)]
SLOPE (correlation of antibody production and relative concentration of cell culture medium component) [2]: 1584.22

C[C@H](O)C(=O)[O-].[Na+] [Sodium-L-lactate, sodium-L-lactate]
Specific IgG production after 11 days [1, 4]: 93.77
Cell growth (area under curve) after 14 days [3, 4]: 61.83

COc1cc(C(=O)O)cc(OC)c1O [Syringic Acid, 4-hydroxy-3,5-dimethoxybenzoic acid]
Specific IgG production after 11 days [1, 4]: 96.8
Specific IgG production after 11 days [1, 5]: 93.2
Specific IgG production after 11 days [1, 6]: 77.3
Cell growth (area under curve) after 14 days [3, 4]: 60.0
Cell growth (area under curve) after 14 days [3, 5]: 58.8
Cell growth (area under curve) after 14 days [3, 6]: 53.4

Nc1ncnc2nc[nH]c12 [adenine]
Specific IgG production after 11 days [1, 5]: 100.8
Specific IgG production after 11 days [1, 6]: 82.4

COc1cc(/C=C/C(=O)O)ccc1O [ferulic acid, (E)-3-(4-hydroxy-3-methoxy-phenyl)prop-2-enoic acid]
Specific IgG production after 11 days [1, 4]: 60.5
Specific IgG production after 11 days [1, 5]: 86.3
Specific IgG production after 11 days [1, 6]: 124.2
Cell growth (area under curve) after 14 days [3, 4]: 66.3
Cell growth (area under curve) after 14 days [3, 5]: 51.3
Cell growth (area under curve) after 14 days [3, 6]: 49.7
